# Experimental data reported in ChEMBL document CHEMBL5665440, “ASAP - In vitro liver microsomal stability” (2024).
# Several values for one entry are separate records, joined by “and”; a condition that tells them apart may be missing. Identical values can stand only once.
# Key:
# [1] = (§1) Human liver microsomal stability of compound in microsomal protein, PBS buffer pH 7.4, NADPH, glucose-6-phosphate and glucose-6-phosphate dehydrogenase media. Aliquotes were taken at 5 time points and after stopping the reaction, supernatants were analyzed using HPLC coupled with a tandem mass spectrometer. The elimination constant, half-life, and intrinsic clearance are determined as results using linear regression analysis.; assay type: ADME, microsomes, Microsome; details: for half-life / microsomal CLint: liver microsomes
# [2] = as §1, with “Mouse” for “Human”; assay type: ADME, microsomes, Microsome; details: for half-life / microsomal CLint: liver microsomes
# Wherever Remaining (without cofactor) is given: time not given here.
# Wherever Remaining is given: time not given here.
Compound,half-life [1],microsomal CLint [1],Remaining ([1]; microsomes),Remaining (without cofactor) ([1]; microsomes),half-life [2],microsomal CLint [2],Remaining ([2]; microsomes),Remaining (without cofactor) ([2]; microsomes),CLint ([1]; microsomes),T1/2 ([1]; microsomes),CLint ([2]; microsomes),T1/2 ([2]; microsomes)
CN(c1ccc2c(c1)CNC2)[C@H](C(=O)NCC(F)F)c1cc(Cl)cc(C2CC2)c1,1.63 h,17.1 µL/min/mg,74.869%,95.997%,2.63 h,10.6 µL/min/mg,80.041%,110.954%,–,–,–,–
O=C(Nc1ccc2c(c1)CNC2)c1cc(Cl)cc2[nH]ncc12,> 2.89 h,< 10 µL/min/mg,87.652%,96.46%,0.115 h,243 µL/min/mg,1.932%,102.129%,–,–,–,–
O=C(Nc1cc2c(c(-c3c[nH]c(=O)c(F)c3)c1)CNC2)c1cc(F)cc2[nH]ncc12,> 2.89 h,< 10 µL/min/mg,95.49%,97.444%,0.115 h,243 µL/min/mg,2.163%,108.846%,–,–,–,–
COc1cc(-c2cc(NC(=O)c3cc(F)cc4[nH]ncc34)cc3c2CNC3)ccn1,> 2.89 h,< 10 µL/min/mg,90.289%,101.002%,0.107 h,260 µL/min/mg,1.475%,106.757%,–,–,–,–
O=C(Nc1cc2c(c(C3=CCOCC3)c1)CNC2)c1cc(F)cc2[nH]ncc12,> 2.89 h,< 10 µL/min/mg,90.19%,105.644%,0.184 h,152 µL/min/mg,8.587%,96.063%,–,–,–,–
O=C(NCC(F)F)[C@H](Nc1cnc2c(c1)CNC2)c1cc(Cl)cc(C2CC2)c1,> 2.89 h,< 10 µL/min/mg,91.952%,110.51%,> 2.89 h,< 10 µL/min/mg,87.443%,105.088%,–,–,–,–
O=C(NCC(F)F)[C@H](Nc1ccc2c(c1)CNC2)c1cc(Cl)cc2ccoc12,> 2.89 h,< 10 µL/min/mg,100.816%,103.719%,> 2.89 h,< 10 µL/min/mg,93.727%,105.352%,–,–,–,–
O=C(Nc1ccc2c(c1)CNC2)c1ccc2[nH]cc(C3CCNCC3)c2c1,> 2.89 h,< 10 µL/min/mg,86.755%,110.939%,> 2.89 h,< 10 µL/min/mg,86.057%,94.216%,–,–,–,–
O=C(Nc1cc2c(c(C3=CCS(=O)(=O)CC3)c1)CNC2)c1cc(F)cc2[nH]ncc12,> 2.89 h,< 10 µL/min/mg,98.934%,96.094%,0.287 h,96.9 µL/min/mg,20.909%,113.863%,–,–,–,–
N#Cc1cc2c(cc1NC(=O)c1cc(F)cc3[nH]ncc13)CNC2,> 2.89 h,< 10 µL/min/mg,85.714% and 76.558%,101.075% and 93.161%,0.0957 h,291 µL/min/mg,0.854% and 0.916%,97.455% and 90.578%,16.74 µL/min/mg,1.6629 h,288.453 µL/min/mg,5.79 min
O=C(Nc1ccc2c(c1)CNC2)c1cc(F)cc2c1CCC2,> 2.89 h,< 10 µL/min/mg,95.811%,102.779%,0.745 h,37.4 µL/min/mg,53.571%,103.66%,–,–,–,–
Cn1ncc2c(C(=O)Nc3ccc4c(c3)CNC4)cc(Cl)cc21,> 2.89 h,< 10 µL/min/mg,91.353%,101.456%,1.09 h,25.5 µL/min/mg,63.701%,92.242%,–,–,–,–
CNC(=O)[C@H](Nc1ccc2c(c1)CNC2)c1cc(Cl)cc(C2CC2)c1,> 2.89 h,< 10 µL/min/mg,90.859%,112.656%,> 2.89 h,< 10 µL/min/mg,87.863%,93.167%,–,–,–,–
O=C(NCC(F)F)[C@H](Nc1ccc2c(c1)CNC2)c1cc(Cl)cc(C2CC2)c1,> 2.89 h,< 10 µL/min/mg,87.774% and 93.401% and 87.317% and 91.082%,101.867% and 96.07% and 104.631% and 112.978%,> 2.89 h,< 10 µL/min/mg,90.622% and 93.184%,90.232% and 99.155%,–,–,–,–
O=C(Nc1cc2c(cc1C1CC1)CNC2)c1cc(F)cc2[nH]ncc12,> 2.89 h,< 10 µL/min/mg,104.365%,104.155%,0.321 h,86.8 µL/min/mg,23.262%,95.024%,–,–,–,–

# The remaining lines, values ahead:
half-life [1],microsomal CLint [1],Remaining ([1]; microsomes),Remaining (without cofactor) ([1]; microsomes),half-life [2],microsomal CLint [2],Remaining ([2]; microsomes),Remaining (without cofactor) ([2]; microsomes),CLint ([1]; microsomes),T1/2 ([1]; microsomes),CLint ([2]; microsomes),T1/2 ([2]; microsomes),Compound
> 2.89 h,< 10 µL/min/mg,94.228%,112.017%,> 2.89 h,< 10 µL/min/mg,97.4%,108.672%,–,–,–,–,COCc1cc(Cl)cc([C@H](Nc2ccc3c(c2)CNC3)C(=O)NCC(F)F)c1
1.97 h,14.1 µL/min/mg,78.018%,74.757%,2.19 h,12.7 µL/min/mg,75.758%,108.523%,–,–,–,–,O=C(Nc1ccc2c(c1)CNC2)c1cccc2[nH]c(C(F)(F)F)cc12
2.25 h,12.4 µL/min/mg,79.862%,98.099%,> 2.89 h,< 10 µL/min/mg,98.216%,98.077%,–,–,–,–,NCc1cccc(NC(=O)C[C@H](NC(=O)OCc2ccccc2)c2ccc(OCc3ccccc3)c(Br)c2)c1
> 2.89 h,< 10 µL/min/mg,97.872%,85.479%,2.23 h,12.5 µL/min/mg,78.028%,113.254%,–,–,–,–,Cn1c(=O)[nH]c2c(C(=O)Nc3ccc4c(c3)CNC4)cc(Br)cc21
> 2.89 h,< 10 µL/min/mg,100.118%,106.151%,> 2.89 h,< 10 µL/min/mg,93.302%,93.905%,–,–,–,–,O=C(NCC(F)F)[C@H](Nc1ccc2c(c1)CNC2)c1cc(Br)cc2nc[nH]c12
> 2.89 h,< 10 µL/min/mg,90%,94.287%,0.756 h,36.8 µL/min/mg,54.776%,103.385%,–,–,–,–,O=C(Nc1ccc2c(c1)CNC2)c1cc(F)cc2[nH]c(-c3ccc(F)cc3)nc12
0.263 h,106 µL/min/mg,18%,94%,0.247 h,94 µL/min/mg,16%,99%,–,–,–,–,CNC(=O)c1cc(Cl)ccc1NS(=O)(=O)c1ccc(Oc2ccccc2Cl)cc1
> 2.89 h,< 10 µL/min/mg,96.629%,106.229%,> 2.89 h,< 10 µL/min/mg,92.112%,95.032%,–,–,–,–,CNC(=O)c1cc(Br)cc([C@H](Nc2ccc3c(c2)CNC3)C(=O)NCC(F)F)c1
1.72 h,16.2 µL/min/mg,75.607%,97.272%,1.43 h,19.5 µL/min/mg,73.231%,102.386%,–,–,–,–,CCCCNC(=O)[C@H](Nc1ccc2c(c1)CNC2)c1cc(Cl)cc(C2CC2)c1
0.497 h,56 µL/min/mg,40.588%,99.499%,3.11 h,7.44 µL/min/mg,87.681%,94.521%,–,–,–,–,CCCC[C@@H](NC(=O)OC(C)(C)C)C(=O)N[C@@H](C(=O)NCc1ccc(CN)cc1)c1ccc(OCc2ccccc2)cc1
0.18 h,155 µL/min/mg,8.181%,110.535%,1.82 h,13 µL/min/mg,79.49%,100.358%,–,–,–,–,O=C(O)c1cc(Cl)ccc1NS(=O)(=O)c1ccc(Oc2ccccc2Cl)cc1
1.42 h,19.7 µL/min/mg,68.563%,103.817%,2.38 h,11.7 µL/min/mg,84.686%,107.462%,–,–,–,–,COCCNC(=O)[C@H](Nc1ccc2c(c1)CNC2)c1cc(Cl)cc(C2CC2)c1
> 2.89 h,< 10 µL/min/mg,84.663%,102.026%,> 2.89 h,< 10 µL/min/mg,87.356%,106.991%,–,–,–,–,Nc1ccncc1-c1cc(F)cc(C(=O)Nc2ccc3c(c2)CNC3)c1
> 2.89 h,< 10 µL/min/mg,93.073%,104.062%,> 2.89 h,< 10 µL/min/mg,90.033%,104.77%,–,–,–,–,COc1cc(C#N)cc([C@H](Nc2ccc3c(c2)CNC3)C(=O)NCC(F)F)c1
